Assay results as given in PMC7930575, “Comparison of the Inhibitory Binding Modes Between the Planar Fascaplysin and Its Nonplanar Tetrahydro-β-carboline Analogs in CDK4” (Frontiers in Chemistry, 2021).
Like-named read-outs stand apart in the source and are kept apart here.

Assays:
[1] = system: A549; assay: MTT cytotoxicity assay, A549 cells, 48 h; format: cell-based; settings: Homo sapiens, read-out: Cytotoxicity (IC50, μM) A549
Description: (§1) The cytotoxicity of the target compounds was evaluated via MTT assay; A549, HeLa, HepG2, and WI-38 were selected for the experiment; and the selected cell lines were purchased from Lanzhou Weihuan Biotechnology Development Co., Ltd. All cell lines were maintained in RPMI-1640 medium supplemented with 10% fetal calf serum under the environment of 5% CO2 concentration and 37°C. The incubated tumor cells were seeded in the prepared 96-well plates, respectively, to make them attach for 12 h. Afterward, the cells were processed with the synthesized compounds with different concentrations as well as fascaplysin as the reference group for 48 h. After 48 h, 10 μl of MTT solution (5 mg/ml in PBS) was added into each well and incubated for 4 h. Then, the medium was removed and 100 μl DMSO was added to dissolve the blue-colored formazan. The absorbance was detected at 570 nm by microplate reader to calculate the inhibition rate (%) and the IC50 was defined using GraphPad Prism Software (version 5.02) (shown in Table 1).

[2] = molecular target: T1, CDK4/CycD3 (Homo sapiens, UniProt P11802); assay: CDK4 kinase inhibition assay (mobility shift assay); format: biochemical; settings: mean of three independent experiments
T1 construct: purchased Cama
T1 sequence (P11802 whole entry): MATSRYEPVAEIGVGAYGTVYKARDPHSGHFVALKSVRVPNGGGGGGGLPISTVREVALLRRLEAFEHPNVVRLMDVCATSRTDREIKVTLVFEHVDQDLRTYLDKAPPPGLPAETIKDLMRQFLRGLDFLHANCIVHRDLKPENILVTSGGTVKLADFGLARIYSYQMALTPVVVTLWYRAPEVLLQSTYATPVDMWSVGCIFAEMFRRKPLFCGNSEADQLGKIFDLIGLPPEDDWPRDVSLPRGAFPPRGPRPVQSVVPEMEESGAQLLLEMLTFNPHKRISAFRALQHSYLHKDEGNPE
T1 sequence (P30281 whole entry partner): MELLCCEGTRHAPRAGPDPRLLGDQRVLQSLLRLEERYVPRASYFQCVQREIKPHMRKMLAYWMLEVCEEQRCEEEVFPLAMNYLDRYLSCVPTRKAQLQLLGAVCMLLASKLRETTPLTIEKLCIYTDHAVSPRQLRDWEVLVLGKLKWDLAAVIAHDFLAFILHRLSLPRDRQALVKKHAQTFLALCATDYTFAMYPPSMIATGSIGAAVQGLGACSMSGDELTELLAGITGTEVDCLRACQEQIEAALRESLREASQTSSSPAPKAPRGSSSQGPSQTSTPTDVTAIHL
Description: In this study, the inhibitory activities of the synthesized compounds against CDK4/CycD3 were also evaluated using mobility shift assay, and fascaplysin was used as the positive control compound. CDK4/CycD3 was from Cama, kinase substrate peptide was from GL, and fascaplysin was from Selleckchem. First, the kinase base buffer should be prepared (50.0 mmol/L HEPES, pH 7.5, 5 mM MgCl2, 1 mmol DTT, 0.0015% Brij-35). Second, 50 μg CDK4 kinase was added to the kinase base buffer to prepare the kinase solution. The kinase base buffer was used to prepare ATP and substrate peptide solutions, and the obtained solutions were mixed. Third, the synthesized compounds as well as the fascaplysin were diluted with DMSO to the desired concentrations. Fourth, the reaction mixture was incubated at 30°C for 40 min, and 25 μl stop buffer was added to stop the reaction. Finally, conversion was read by Caliper, and GraphPad Prism 5.0 was used to calculate the IC50 values of the compounds against enzyme bioactivities (Table 2).

[3] = system: HeLa; assay: MTT cytotoxicity assay, HeLa cells, 48 h; format: cell-based; settings: Homo sapiens, read-out: Cytotoxicity (IC50, μM) HeLa
Description: as §1

[4] = MTT cytotoxicity assay, normal cells WI-38, 48 h; format: cell-based; settings: human
Description: as §1

[5] = system: HepG2; assay: MTT cytotoxicity assay, HepG2 cells, 48 h; format: cell-based; settings: Homo sapiens, read-out: Cytotoxicity (IC50, μM) HepG2
Description: as §1

[6] = A549, MTT assay, 48 h, three independent experiments
[7] = MTT assay, three independent experiments
[8] = WI-38 cells (normal cell line), normal cell line, MTT assay, 48 h, three independent experiments, read-out: Cytotoxicity (IC50, μM) WI-38
[9] = HepG2, MTT assay, 48 h, three independent experiments

melting point [°C] | IC50 [2] [µM] | SMILES | IC50 [1, 6] [µM] | IC50 [3, 7] [µM] | IC50 at 48 h [4, 8] [µM] | IC50 [5, 9] [µM] | IC50 ([1]; A549, 48 h) [µM] | IC50 [3] [µM] | IC50 at 48 h [4] [µM] | IC50 ([5]; HepG2, 48 h) [µM]
182.8 to 183.7 | 29.6 | COC(=O)C1c2[nH]c3ccccc3c2CCN1C(=O)c1ccc(F)cc1 (stereo not drawn) [Compound 6a, Methyl-2-(4-fluorobenzoyl)-2,3,4,9-tetrahydro-1H-pyrido [3,4-b] indole-1-carboxylate] | 38.3 ± 2.53 | 28.4 ± 1.12 | 253 ± 33.2 | 31.6 ± 2.53 | – | – | – | –
200.8 to 201.6 | 25.7 | COC(=O)C1c2[nH]c3ccccc3c2CCN1C(=O)c1ccc(OC)cc1 (stereo not drawn) [Compound 6b, Methyl-2-(4-methoxybenzoyl)-2,3,4,9-tetrahydro-1H-pyrido [3,4-b] indole-1-carboxylate] | 13.2 ± 1.21 | 14.1 ± 2.69 | 267 ± 28.9 | 26.3 ± 1.88 | – | – | – | –
177.8 to 179.6 | 1.89 | COC(=O)C1c2[nH]c3ccccc3c2CCN1C(=O)c1ccc(-c2ccccc2)cc1 (stereo not drawn) [Compound 6c, Methyl-2-([1, 1’-biphenyl]-4-carbonyl)-2,3,4,9-tetrahydro-1H-pyrido [3,4-b] indole-1 carboxylate] | 6.53 ± 1.65 | 1.03 ± 0.19 | 312 ± 56.1 | 5.21 ± 0.58 | – | – | – | –
195.6 to 196.5 | 30.3 | COC(=O)C1c2[nH]c3ccccc3c2CCN1C(=O)c1ccc(I)cc1 (stereo not drawn) [Compound 6d, Methyl-2-(4-iodobenzoyl)-2,3,4,9-tetrahydro-1H-pyrido [3,4-b] indole-1-carboxylate] | 10.8 ± 1.17 | 19.4 ± 2.56 | 373 ± 62.8 | 33.4 ± 5.18 | – | – | – | –
– | 20.7 | COC(=O)C1c2[nH]c3ccccc3c2CCN1C(=O)c1ccccc1 (stereo not drawn) [Compound 6e, Methyl-2-benzoyl-2,3,4,9-tetrahydro-1H-pyrido [3,4-b] indole-1-carboxylate] | 15.5 ± 1.26 | 16.8 ± 4.12 | 118 ± 12.9 | 31.8 ± 2.86 | – | – | – | –
193.3 to 194.36 | 39.6 | COC(=O)C1c2[nH]c3ccccc3c2CCN1C(=O)c1ccc(C(F)(F)F)cc1 (stereo not drawn) [Compound 6f, Methyl-2-(4-(trifluoromethyl)benzoyl)-2,3,4,9-tetrahydro-1H-pyrido [3,4-b] indole-1-carboxylate] | 38.7 ± 7.25 | 29.9 ± 4.73 | 125 ± 26.1 | 35.8 ± 3.23 | – | – | – | –
200.3 to 201.5 | 27.5 | COC(=O)C1c2[nH]c3ccccc3c2CCN1C(=O)c1ccc(Cl)cc1 (stereo not drawn) [Compound 6g, Methyl 2-(4-chlorobenzoyl)-2,3,4,9-tetrahydro-1H-pyrido[3,4-b] indole-1-carboxylate] | 25.7 ± 8.78 | 22.9 ± 2.31 | 375 ± 60 | 13.7 ± 2.13 | – | – | – | –
183.6 to 184.5 | 12.4 | COC(=O)C1c2[nH]c3ccccc3c2CCN1C(=O)c1ccc2ccccc2c1 (stereo not drawn) [Compound 6h, Methyl-2-(2-naphthoyl)-2,3,4,9-tetrahydro-1H-pyrido [3,4-b] indole-1-carboxylate] | 12.7 ± 1.2 | 10.8 ± 2.69 | 186 ± 12.4 | 19.5 ± 0.43 | – | – | – | –
165.3 to 166.7 | 3.38 | COC(=O)C1c2[nH]c3ccccc3c2CCN1C(=O)c1ccc2c(c1)OCO2 (stereo not drawn) [Compound 6i, Methyl-2-(benzo [d] [1,3]dioxole-5-carbonyl)-2,3,4,9-tetrahydro-1H-pyrido [3,4-b] indole-1-carboxylate] | 9.6 ± 3.22 | 3.57 ± 0.93 | 247 ± 10.9 | 12.2 ± 3.01 | – | – | – | –
199.5 to 201.7 | 31.6 | CCOC(=O)C1c2[nH]c3ccccc3c2CCN1C(=O)c1ccc(F)cc1 (stereo not drawn) [Compound 7a, Ethyl-2-(4-fluorobenzoyl)-2,3,4,9-tetrahydro-1H-pyrido [3,4-b] indole-1-carboxylate] | 39.5 ± 4.98 | 29.6 ± 7.07 | 255 ± 86.3 | 47.5 ± 4.11 | – | – | – | –
206.9 to 209.8 | 30.7 | CCOC(=O)C1c2[nH]c3ccccc3c2CCN1C(=O)c1ccc(OC)cc1 (stereo not drawn) [Compound 7b, Ethyl-2-(4-methoxybenzoyl)-2,3,4,9-tetrahydro-1H-pyrido [3,4-b] indole-1-carboxylate] | 15.5 ± 13.4 | 15.4 ± 3.1 | 429 ± 38.9 | 41.5 ± 2.42 | – | – | – | –
201.4 to 201.8 | 4.89 | CCOC(=O)C1c2[nH]c3ccccc3c2CCN1C(=O)c1ccc(-c2ccccc2)cc1 (stereo not drawn) [Compound 7c, Ethyl 2-([1, 1’-biphenyl]-4-carbonyl)-2,3,4,9-tetrahydro-1H-pyrido [3,4-b] indole-1 carboxylate] | 10.5 ± 1.5 | 4.71 ± 0.7 | 281 ± 7.81 | 10.8 ± 1.49 | – | – | – | –
175.6 to 176.3 | 35.3 | CCOC(=O)C1c2[nH]c3ccccc3c2CCN1C(=O)c1ccc(I)cc1 (stereo not drawn) [Compound 7d, Ethyl-2-(4-iodobenzoyl)-2,3,4,9-tetrahydro-1H-pyrido[3,4-b] indole-1-carboxylate] | 20.4 ± 2.68 | 27.6 ± 2.38 | 183 ± 17.9 | 28.2 ± 0.95 | – | – | – | –
196.5 to 198.6 | 29.7 | CCOC(=O)C1c2[nH]c3ccccc3c2CCN1C(=O)c1ccccc1 (stereo not drawn) [Compound 7e, Ethyl-2-benzoyl-2,3,4,9-tetrahydro-1H-pyrido [3,4-b] indole-1-carboxylate] | 27.3 ± 6.5 | 19.9 ± 2.45 | 99.8 ± 9.97 | 21.4 ± 1.69 | – | – | – | –
– | 43.9 | CCOC(=O)C1c2[nH]c3ccccc3c2CCN1C(=O)c1ccc(C(F)(F)F)cc1 (stereo not drawn) [Compound 7f, Ethyl-2-(4-(trifluoromethyl)benzoyl)-2,3,4,9-tetrahydro-1H-pyrido [3,4-b] indole-1-carboxylate] | 42.1 ± 7.6 | 47 ± 4.8 | 183 ± 17.9 | 16.2 ± 3.72 | – | – | – | –
232.3 to 233.5 | 30.4 | CCOC(=O)C1c2[nH]c3ccccc3c2CCN1C(=O)c1ccc(Cl)cc1 (stereo not drawn) [Compound 7g, Ethyl-2-(4-chlorobenzoyl)-2,3,4,9-tetrahydro-1H-pyrido[3,4-b] indole-1-carboxylate] | 27.3 ± 2.4 | 24.9 ± 3.44 | 200 ± 9.97 | 41.4 ± 1.69 | – | – | – | –
209.6 to 211.5 | 16.4 | CCOC(=O)C1c2[nH]c3ccccc3c2CCN1C(=O)c1ccc2ccccc2c1 (stereo not drawn) [Compound 7h, Ethyl-2-(2-naphthoyl)-2,3,4,9-tetrahydro-1H-pyrido [3,4-b] indole-1-carboxylate] | 25.5 ± 3.92 | 16.5 ± 6.64 | 183 ± 13.2 | 17.5 ± 13.8 | – | – | – | –
202.5 to 204.6 | 9.38 ± 1.79 | CCOC(=O)C1c2[nH]c3ccccc3c2CCN1C(=O)c1ccc2c(c1)OCO2 (stereo not drawn) [Compound 7i, Ethyl-2-(benzo [d] [1,3]dioxole-5-carbonyl)-2,3,4,9-tetrahydro-1H-pyrido [3,4-b] indole-1-carboxylate] | 20 ± 5.57 | 6.18 ± 2.78 | 256 ± 56 | 23.2 ± 9.17 | – | – | – | –

SMILES | melting point [°C] | IC50 [2] [µM] | IC50 [1, 6] [µM] | IC50 [3, 7] [µM] | IC50 at 48 h [4, 8] [µM] | IC50 [5, 9] [µM] | IC50 ([1]; A549, 48 h) [µM] | IC50 [3] [µM] | IC50 at 48 h [4] [µM] | IC50 ([5]; HepG2, 48 h) [µM]
O=C1c2ccccc2-[n+]2ccc3c([nH]c4ccccc43)c21 [Fascaplysin] | – | 0.79 ± 0.72 | – | – | – | – | 1.05 ± 0.08 | 0.56 ± 0.05 | 1.86 ± 0.17 | 0.24 ± 0.04
